“And” between values parts separate entries of the source, which are not always exact repeats. Identical values can stand only once. “Also recorded” adds a separate entry of the source.
Legend:
wildtype C57/BL6 mice [1] = assay: Macroscopic IRRs (scoring 0-2) in mice after injection of surrogate antibody, with or without premedication or split-dosing; format: in vivo, mouse; parameters: key to grade of macroscopic symptoms with single premedication: 0: No visible symptoms; 1: Isolation, decreased activity; 2: Isolation, decreased activity, impaired balance, piloerection, hunching followed by un-natural body posture; details: for effect of anti-histamine premedication alone on IRRs / macroscopic symptoms: pre i.v. injection of 10 mg/kg AT-130-2 IgG2a; for effect of adding anti-histamine to two doses of corticosteroid: with 40 mg/kg Betamethasone (24 hours and 1 hour) pre i.v. 10 mg/kg AT-130-2 IgG2a, macroscopic symptoms and platelet counts; for inhibition of IRRs by other pre-medications: given i.p. 1 h prior to i.v. AT-130-2 IgG2a bulk dose 200 ug/mouse
Protocol: Six to eight weeks-old (17-20 g) female C57/BL6 and Balb C mice were obtained from Taconic or Janvier. Mice were injected i.v with mouse anti-CD32B AT-130-2 IgG2a either as a bulk dose of 200 ug/mouse or as a split-dose with 8 ug/mouse followed by 200 ug/mouse.
For the corticosteroid treatment, Betapred (betamethasone, VNR: 008938, Alfasigma S.P.A.) was used at 10 mg/kg which is a suboptimal dose in these mouse models.
Split-dosing was initiated 24 h post corticosteroid treatment with 8 ug/mouse of mouse anti-CD32B AT-130-2 IgG2a i.v. followed by a bulk-dose of 200 ug/mouse 20-40 minutes later. In parallel mice were injected with only the bulk-dose.
Mice were monitored post injection with regards to changes in behavior and macroscopic symptoms such as isolation, mobility, and fur condition. Macroscopic IRRs scoring system of 0-2 was set up based on the observations.
Other premedications evaluated were anti-PAF (CV3988, sc-201015, Santa Cruz 20 mg/kg), anti-IL6 (clone 15A7, BE0047, Bioxcell, 10 mg/kg), anti-histamine (Zantac, VNR: 077875, GlaxoSmithKline AB, 5 mg/kg) or a leukotriene-antagonist (131064, Apoex, 4 mg/kg). These premedications were given i.p 1 h prior to injection i.v of mouse anti-CD32B AT-130-2 IgG2a as a bulk dose of 200 ug/mouse.
Six to eight weeks-old (17-20 g) female C57/BL6 mice were obtained from Taconic. Mice were injected either intra-venous (i.v.), […] (i.p.) or sub-cutaneous (s.c.) with mouse anti-CD32B AT-130-2 IgG2a in doses ranging from 1 μg-400 μg/mouse.
For the corticosteroid treatment, Betapred (betamethasone, VNR: 008938, Alfasigma S.P.A.) or Dexamethasone (Cat. No: S1322, batch no: 02, Selleckchem) was used. For the anti-histamine treatment Zyrlex (10 mg/ml, VNR: 523084, MACURE PHARMA ApS), Zantac (25 mg/ml, VNR: 077875, GlaxoSmithKline AB) or Aeurius (0.5 mg/ml, VNR: 097288, Merck Sharp & Dohme BV) was used.
Mice were monitored post injection with regard to changes in behavior and macroscopic symptoms such as isolation, mobility, and fur condition. Macroscopic IRRs scoring system of 0-2 was set up based on the observations: […]
For the corticosteroid treatment, Betapred (betamethasone, VNR: 008938, Alfasigma S.P.A.) or Dexamethasone (Cat. No: S1322, Batch No: 02, Selleckchem) was used.

wildtype C57/BL6 mice [2] = assay: Platelet counts in fresh mouse blood (Vetscan) after antibody injection; format: in vivo; details: pre i.v. injection of 10 mg/kg AT-130-2 IgG2a
Protocol: Blood samples were collected from vena saphena 20 min post injection of bulk dose of anti-CD32B for instant blood count analysis. For liver enzyme and cytokine analysis, the mice were bled from the aorta under isoflurane anesthesia just prior to sacrifice. Samples for liver enzymes and cytokines were collected 1 h and respectively 3 h after bulk dose.
Platelet counts were analyzed in fresh blood using a Vetscan (Vetscan HM5 Abaxis, Triolab).
Blood samples were collected from vena saphena for instant blood count analysis. For serum concentrations of AT130-2, liver enzyme and cytokine analysis, the mice were bled from the aorta under isoflurane anesthesia just prior to sacrifice.
Blood samples were collected from vena saphena for instant blood count analysis.

FcγRIIB = molecular target: T1, FcγRIIB (Homo sapiens, UniProt P31994); assay: FcgRIIb receptor occupancy on peripheral B cells (flow cytometry); format: in vivo; details: 100 mg BI-1206; preliminary data
T1 construct: endogenous in cells; host or cells: peripheral CD19+ B cells in whole blood of human subjects (B-cell NHL / CLL patients)
T1 sequence (P31994 43-310): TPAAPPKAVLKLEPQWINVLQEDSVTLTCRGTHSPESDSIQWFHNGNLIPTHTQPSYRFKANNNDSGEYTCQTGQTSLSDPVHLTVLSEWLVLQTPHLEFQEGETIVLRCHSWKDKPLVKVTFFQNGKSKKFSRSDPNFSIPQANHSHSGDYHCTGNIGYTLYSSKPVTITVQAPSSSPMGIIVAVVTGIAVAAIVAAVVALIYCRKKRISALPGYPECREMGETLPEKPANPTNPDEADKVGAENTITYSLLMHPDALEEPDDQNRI
Protocol: The FcgRIIb receptor occupancy in humans and hFcgRIIb transgenic mice was analyzed using flow cytometry. Whole blood from was incubated with either 005-005 antibody (targeting hFcgRIIb) or anti-hCD32-AF647 antibody. 005-005 binds the same epitope as BI-1206 but with much lower affinity. In the analysis, the Geo Mean of respectively mAb (005-005 and anti-human CD32) was acquired on the CD19+ cell population. Receptor occupancy (RO) was calculated using the following equations: RO (%)=((Total Receptors-Normalized Free Receptors)*100)/Total Receptors. All replicates of 005-005 geo mean of CD19+ cells were then multiplied by the Normalization factor.

peripheral B lymphocytes = assay: Peripheral B lymphocyte depletion after BI-1206 infusion; format: in vivo, human; details: 100 mg BI-1206; preliminary data
[3] = system: human subjects with non-hodgkins B-cell lymphoma; assay: Cytokine release in plasma/serum after BI-1206 infusion (MSD); format: in vivo; details: ≥70 mg (70-100 mg) BI-1206
Protocol: For cytokine concentrations, frozen plasma samples were thawed and diluted ×2 and x8. Two parallel set of cytokines were analyzed, the proinflammatory assay with IL-6, IL-8, TNF-α, IFN-γ, IL-10, IL-2 and IL-4 (MesoScale Discovery (MSD) #K15049), and the chemokine assay with MIP-113, IL-113, IL-23, IL-12p70, TARC and VEGF (MSD #K15067). The assays followed the manufacturer's protocol as outlined briefly: 50 μL of sample and calibration standard were added to the appropriate MSD plates and incubated. Following washing, 25 μL of SULFO-TAG detection antibody mixture were added to each well of the corresponding plate. The plates were analyzed on a QuickPlex SQ120 Reader instrument (MSD) and cytokine concentration was calculated using the MSD software (Discovery Workbench, 2013; version LSR-4-0-12).

[4] = system: human subjects with non-hodgkins B-cell lymphoma; assay: Clinical response in patients treated with BI-1206; format: in vivo; details: after incorporation of the premedication regimen into the clinical protocol
[5] = system: human subjects with non-hodgkins B-cell lymphoma; assay: ALT/AST in clinical studies with BI-1206; details: ≥70 mg (70-100 mg) BI-1206
Excerpt: (§1) Platelet counts, ALT concentrations and IRR grading Platelet counts, ALT concentrations and IRR grading were obtained from clinical sites where analyzed and reported according local standard procedures.

[6] = system: human subjects with non-hodgkins B-cell lymphoma; assay: Platelet counts in clinical studies with BI-1206
Excerpt: as §1

[7] = system: human subjects with non-hodgkins B-cell lymphoma; assay: Infusion related reactions (IRR grading) in clinical studies with BI-1206
Excerpt: as §1
Part of the data is based on personal communication with individual investigators.

mouse CD32B (mouse) = mouse CD32B (mouse) (UniProt P08101); assay: receptor saturation at 10 µg/ml AT-130-2; separate experiments not shown in the filing
Sequence of mouse CD32B (mouse) (P08101 30-207 limits assumed): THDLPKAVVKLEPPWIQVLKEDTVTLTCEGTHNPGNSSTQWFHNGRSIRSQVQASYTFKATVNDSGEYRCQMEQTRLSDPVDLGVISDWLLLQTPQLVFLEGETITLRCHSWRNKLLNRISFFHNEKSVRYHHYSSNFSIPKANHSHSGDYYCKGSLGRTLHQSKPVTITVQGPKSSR

Clc1ccc2c(c1)CCc1cccnc1C2=C1CCNCC1 [Aeurius]
effect of anti-histamine premedication alone on IRRs / macroscopic symptoms (wildtype C57/BL6 mice [1]; 10 mg/kg): did not inhibit IRRs or platelet decrease | effect of anti-histamine premedication alone on IRRs / macroscopic symptoms (wildtype C57/BL6 mice [1]; listed as Au, 10 mg/kg): The same results were seen | effect of adding anti-histamine to two doses of corticosteroid (wildtype C57/BL6 mice [1]): the protective effect was retained | effect of anti-histamine premedication alone on platelet decrease (wildtype C57/BL6 mice [2]): did not inhibit IRRs or platelet decrease

BI-1206: anti-FcγRIIb antibody with light chain SEQ ID No:1 and heavy chain SEQ ID No:2
duration of receptor saturation (FcγRIIB): up to 48 hours | receptor occupancy on peripheral B cells (FcγRIIB): ~100% | peripheral B lymphocytes (peripheral B lymphocytes): transient depletion of peripheral B lymphocytes | time to recovery of peripheral B lymphocytes (peripheral B lymphocytes): approximately 7 days | time to normalization of cytokines [3]: ≤ 24 h | clinical responses [4]: Both complete and partial responses have been observed | subjects with significant ALT and AST increase [5]: 3/14 and 3 out of 16 | platelet decrease ([6]; 70 mg BI-1206, subjects 501-001 and 503-002, two doses of dexamethasone): no/low platelet decrease | seriousness and resolution of thrombocytopenia ([6]; 70-100 mg / ≥50 mg BI-1206): The decrease is transient and most episodes have been resolved within a week; also recorded: has not been serious nor associated with bleeding and most episodes resolved within a week | platelets ([6]; ≥50 mg BI-1206): transient decrease in platelets | grade of IRR's ([7]; 30 mg BI-1206, subject 201-003, 10th administration, two doses of dexamethasone): 1 | IRRs ([7]; 70 mg BI-1206, subjects 501-001 and 503-002, dexamethasone 12 mg or 4 mg the evening before and 20 mg 30 minutes prior): None of the subjects suffered any IRRs; also recorded: Both subjects did not suffer IRRs | grade of IRRs ([7]; 70 mg BI-1206, subjects 501-001 and 503-002, dexamethasone (20 mg) only 30 minutes prior to infusion): 2-3 grade | severity and frequency of IRRs after implementation of premedication with two doses of corticosteroids ([7]; 70-100 mg BI-1206, study 17-BI-1206-02): Significantly lower frequency and severity of IRRs; also recorded: statistically significant reduced severity and frequency of IRRs | infusion related reactions during BI-1206 infusions ([7]; i.v. administration, human subjects): frequently associated with IRRs; also recorded: Frequent infusion related reactions (IRRs) have been seen

C[C@H]1C[C@H]2[C@@H]3CCC4=CC(=O)C=C[C@]4(C)[C@@]3(F)[C@@H](O)C[C@]2(C)[C@@]1(O)C(=O)CO [betamethasone]
grade of macroscopic symptoms with single premedication (wildtype C57/BL6 mice [1]; 40 mg/kg only 24 hours before i.v. 10 mg/kg AT-130-2 IgG2a): 1

CC(C)(C)c1ccc(C(O)CCCN2CCC(C(O)(c3ccccc3)c3ccccc3)CC2)cc1 (stereo not drawn) [anti-histamine]
inhibition of IRRs by other pre-medications (wildtype C57/BL6 mice [1]): None of these pre-medications could inhibit IRRs; also recorded: none of the tested substances (anti-PAF, anti-IL-6, anti-histamine and a leukotrien-antagonist) could prevent the IRRs | effect of anti-histamine premedication alone on IRRs / macroscopic symptoms (wildtype C57/BL6 mice [1]): did not inhibit macroscopic symptoms | effect of adding anti-histamine to two doses of corticosteroid (wildtype C57/BL6 mice [1]): did not affect macroscopic symptoms or platelet counts | effect of anti-histamine premedication alone on platelet decrease (wildtype C57/BL6 mice [2]): did seem to improve decrease in platelet counts

CCCCCCCCCCCCCCCCCCNC(=O)OCC(COP(=O)([O-])OCC[n+]1ccsc1)OC (stereo not drawn) [anti-PAF]
inhibition of IRRs by other pre-medications (wildtype C57/BL6 mice [1]): None of these pre-medications could inhibit IRRs; also recorded: none of the tested substances (anti-PAF, anti-IL-6, anti-histamine and a leukotrien-antagonist) could prevent the IRRs

O=C(O)COCCN1CCN(C(c2ccccc2)c2ccc(Cl)cc2)CC1 (centres unmarked) [Zyrlex]
effect of anti-histamine premedication alone on IRRs / macroscopic symptoms (wildtype C57/BL6 mice [1]; 10 mg/kg): The same results were seen; also recorded: did not inhibit IRRs or platelet decrease | effect of adding anti-histamine to two doses of corticosteroid (wildtype C57/BL6 mice [1]): the protective effect was retained | effect of anti-histamine premedication alone on platelet decrease (wildtype C57/BL6 mice [2]): did not inhibit IRRs or platelet decrease

AT-130-2 IgG2a (antibody)
receptor saturation (mouse CD32B (mouse)): 100%

Source: US20230322933A1, “MODEL FOR PREDICTION OF TOLERABILITY ISSUES IN CONNECTION WITH INTRAVENOUS ADMINISTRATION OF THERAPEUTIC ANTIBODIES” (BIOINVENT INTERNATIONAL AB, priority 2020, published 2023)
